Measurements from patent US20050043262A1, “Novel specific inhibitor of the cyclin kinase inhibitor p21Waf1/Cip1 and methods of using the inhibitor” (priority 2000, published 2005).

How the values were obtained:
p21^Waf1/Cip1 [1] = test: p21 protein level by Western blot in A10 VSM cells; assay type: cell-based, rat
Method: (§1) Western blots: Cells were grown to confluence in 6 cm culture dishes and serum deprived. After transfection and or treatment with appropriate agonist, the cells were washed with phosphate-buffered saline and lysed in lysis buffer and the supernatant was Western blotted as described (Weiss et al., 1998 Am. J. Physiol., 274, p. C1521-C1529).
To determine whether antisense transfection with p21^Waf1/Cip1 antisense oligonucleotides indeed decreases p21^Waf1/Cip1 protein levels, p21^Waf1/Cip1 levels after antisense transfection were examined employing the fact that PMA is a potent inducer of p21^Waf1/Cip1 (Huang et al., 1995 Proc. Natl. Acad. Sci. U.S.A., 92, p. 4793-4797; Michieli et al., 1994 Cancer Res., 54, p. 3391-3395). Since p21^Waf1/Cip1 protein levels were induced in VSM cells between 2 and 6 hours after PMA stimulation (FIG. 4), the p21^Waf1/Cip1 levels in transfected cells after similar times of PMA stimulation were examined. […] There was no effect of the p21^Waf1/Cip1 sense (SEQ. ID NO.:2) control oligodeoxynucleotide on cellular p21^Waf1/Cip1 levels (compare with FIG. 4).
To check for specificity of protein inhibition by the antisense p21^Waf1/Cip1 oligodeoxynucleotide (SEQ. ID NO.: 1), protein levels of p21^Waf1/Cip1 and p27^Kip1 after transfection with antisense p21^Waf1/Cip1 oligodeoxynucleotide (SEQ. ID NO.:1) were examined. In these experiments the ability of antisense oligodeoxynucleotides (SEQ. ID NO.:1) to inhibit maximally stimulated CKI expression (see FIG. 4) was assessed. The cells were stimulated with PMA for 4 hours at various times after overnight serum starvation.
(§2) Western blots: Cells were grown to confluence in 6 cm culture dishes and serum deprived. After transfection and or treatment with appropriate agonist, conditioned medium was removed and saved and the cells were washed with phosphate-buffered saline and lysed in lysis buffer. Both supernatant and cell lysate were normalized to the lysate protein concentrations and Western blotted as described (Weiss R H, et al. Am J Physiol 274:C1521-C1529, 1998).
To confirm that p21 levels were increased after exposure to ionizing radiation, and that the oligonucleotides inhibit this phenomenon in A10 cells, p21 protein levels under these conditions were assayed. […] With the exception of the initial decrease in p21 levels at ½ and 1 hours, the results with the control oligonucleotides were similar to that observed in non-transfected cells.
Adriamycin is a prototypical DNA damaging agent used in the treatment of a variety of cancers. The predominantly G2 arrest seen after Adriamycin treatment has been associated with an increase in p21 levels in some cell lines (Siu W Y, et al. FEBS Lett 461:299-305, 1999). In order to determine whether similar augmentation of p21 is seen in A10 VSM cells and whether the antisense p21 oligonucleotide is inhibiting this response, these cells were treated with Adriamycin either with or without first transfecting the cells with the antisense and control oligonucleotides. Confluent VSM cells were transfected with antisense oligonucleotide to p21 or random sequence control oligonucleotide as described above. After 24 hours, the cells were exposed to Adriamycin (500 ng/ml), lysed at the indicated times after exposure, and Western blotted with p21 antibody.
Using a random sequence phosphorothioate oligodeoxynucleotide (SEQ. ID NO.:3) as a control, the effect of the antisense oligodeoxynucleotide to p21 (400 nM) on p21 and α-actin protein expression in A10 VSM cells, was examined. The lysates, normalized for protein content, were Western blotted with either p21 or α-actin antibody.

A431 cells = test: [3H]thymidine incorporation (DNA synthesis) in A431 cells; assay type: cell-based, human; conditions: PMA 100 ng/ml
Method: FIG. 9A-D are bar graphs showing Antisense p21^Waf1/Cip1 oligodeoxynucleotide has no significant effect DNA synthesis in PMA-inhibitable A431 cells, as described in Example II, infra. […] A431 cells were placed in serum-free medium overnight and then stimulated with (A) PDGF-BB (30 ng/ml), (B) 10% serum-containing medium, or (C) PDGF-BB or PMA (100 ng/ml) for another 8 hours before [^3H]-thymidine was added for overnight incubation. (D) A10 VSM cells were transfected with sense and antisense p21^Waf1/Cip1 oligonucleotides as above and treated similarly to (B). DNA synthesis was assessed by [^3H]-thymidine incorporation and is expressed as mean ±s.e.m. of three wells per data point. The absolute counts differ between experiments due to different confluency of the cells. The experiments shown are representative of two separate experiments.
Cell culture and DNA synthesis: Cultures of A10 and A431 cells were obtained from American Type Culture Collection (Rockville Md), were maintained as described (Weiss et al. 1998, Am. J. Physiol. 274, C1521-C1529), and were used between passages 15 and 24 or 25 and 35, respectively. The cells were growth-arrested by placing them in serum-free quiescence medium, exposed to growth factors as indicated, and [^3H]thymidine incorporation assessed as previously described (Weiss and Nuccitelli, 1992, J. Biol. Chem. 267, 5608-5613).
This A431 data is in contrast with that obtained in a variety of VSM cell lines, where cell growth was inhibited by similar oligodeoxynucleotide concentrations in cell stimulated with both PDGF-BB and serum (FIG. 9d).

A10 VSM cells = test: [3H]thymidine incorporation (DNA synthesis) in A10 VSM cells; assay type: cell-based, rat
caspase-3 = test: Caspase-3 activation (cleavage product) by Western blot in VSM cells; assay type: cell-based, rat; conditions: Adriamycin experiment (FIG. 19b)
Method: FIGS. 19A and B depict how Caspase-3 is activated by antisense oligonucleotide to p21 but not early after radiation or Adriamycin, as described in Example III, infra. Confluent VSM cells were transfected with oligonucleotide in the concentration indicated, left in serum-containing media overnight, and exposed to (A) ionizing radiation (12 Gy) or (B) Adriamycin where indicated. 4 hours later, activation of caspase-3 was assessed by Western blotting. The arrowhead indicates the cleavage product of caspase-3 signifying its processing as an early step in apoptosis. Wortmannin (wort) is a positive control for apoptosis. […] The experiment shown is representative of two separate experiments.
as §2
In order to determine whether the potentiation of ionizing radiation and Adriamycin induced DNA synthesis inhibition by p21 antisense oligonucleotides is accompanied by apoptosis, caspase-3 activation in response to ionizing radiation was examined. Caspase-3 is an effector caspase whose activation (leading to apoptosis) results in a 20 kD cleavage product which can be assessed by Western blotting (McCarthy N J, Evan G I. Curr Top Dev Biol 36:259-278, 1998). This process is an early event in a cascade of reactions which ultimately leads to apoptosis, as is evident by the fact that inactivation of caspase-3 dramatically reduces apoptosis in several cell lines (Woo M, et al. Genes Dev 12:806-819, 1998).
VSM cells were transfected with antisense or control oligonucleotides overnight and then stimulated with ionizing radiation.

p21^Waf1/Cip1 [2] = test: PMA-induced p21 level by Western blot in A431 cells; assay type: cell-based, human; conditions: 200 nM oligodeoxynucleotide, PMA 100 ng/ml up to 6 hours
Method: as §1, with “and Nuccitelli, 1992” for “et al., 1998 Am.”, “Biol. Chem., 267,” for “Physiol., 274,”, “5608-5613).” for “C1521-C1529).”
PMA is a potent inducer of p21^Waf1/Cip1 in a variety of different cell lines (Huang et al., 1995 Proc. Natl. Acad. Sci. US.A., 92, p. 4793-4797; Michieli et al., 1994 Cancer Res., 54, p. 3391-3395) and was employed to examine p21^Waf1/Cip1 levels after antisense transfection and confirm efficacy of translation to attenuate p21^Waf1/Cip1 levels. A431 cells were transfected with 200 nM antisense p21^Waf1/Cip1 (SEQ. ID NO.:1) or sense p21^Waf1/Cip1 oligodeoxynucleotide (SEQ. ID NO.:2). After overnight incubation in serum-free medium, the cells were stimulated with PMA (100 ng/ml) for the times indicated, lysed, and the lysates were Western blotted with p21^Waf1/Cip1 or α-actin antibody.

laminin = test: Laminin production and secretion (immunoblot of lysate and conditioned media); assay type: cell-based, rat; conditions: control oligodeoxynucleotide transfected cells, TGF-β higher doses
Method: as §2, with “and/or” for “and or”, “(Weiss, R. H.;” for “(Weiss R H,”, “Am. J. Physiol. 274: C1521-C1529;” for “Am J Physiol 274:C1521-C1529,”
The p21 influences on matrix protein secretion in VSM cells were determined. Levels of the matrix proteins laminin and fibronectin were examined in both TGF-β stimulated lysate and conditioned media of cells in which p21 expression had been attenuated. The cells were transfected with either antisense p21 (SEQ. ID NO.:1) (400 nM), or random sequence control (SEQ. ID NO.:3) (400 nM) oligodeoxynucleotide, and then stimulated with TGF-β at for 0.1 to 10 ng/ml for 4 hours. Conditioned media and cell lysate were collected, and both medium and lysate volumes were normalized for the protein content in total cell lysate to exclude any skewing of the data due to cell proliferation. The proteins were electrophoresed and immunoblotted with either fibronectin (after immunoprecipitation to eliminate extraneous bands which appeared in the absence of this procedure) or laminin antibody.

fibronectin = test: Fibronectin production and secretion (immunoprecipitation/immunoblot); assay type: cell-based, rat; conditions: VSM cells, TGF-β, maximal level in lysate at higher doses
Method: Immunoprecipitations: VSM cells were grown to confluence. After incubation under appropriate conditions, the cells were washed with ice-cold phosphate-buffered saline and immediately lysed in lysis buffer (20 mM Tris [pH7.5], 150 mM NaCl, 1 mM EDTA, 1 mM EGTA, 1% Triton X-100, 2.5 mM sodium pyrophosphate, 1 mM β-glycerolphosphate, 1 mM Na3VO4, 1 μg/ml Leupeptin, 1 mM PMSF) at 4° C. The cells were scraped off with a rubber spatula and the insoluble material removed by centrifuging at 10,000× g for 10 min at 4° C. Protein concentration was determined by A595, and lysates containing equal amounts of protein were incubated with […] anti-fibronectin antibody at 4° C. overnight. Protein A-Sepharose beads were added and the resulting mixture was incubated for an additional 2 hours at 4° C. The beads were centrifuged in a microfuge for 20 sec, and the pellet was washed 3 times with cold lysis buffer. The supernatant was decanted, gel loading buffer was added to the precipitate, and the solution was boiled for 5 min, and centrifuged. The supernatant was electrophoresed on a 7.5% SDS-polyacrylamide gel with equal volumes of sample per lane. The proteins were electrophoretically transferred to nitrocellulose and probed with fibronectin antibody.
The p21 influences on matrix protein secretion in VSM cells were determined. […]

**Q.** With `CCCCCCCCCCCCCC(=O)O[C@@H]1[C@@H](C)[C@@]2(O)[C@@H](C=C(CO)C[C@]3(O)C(=O)C(C)=C[C@@H]23)[C@@H]2C(C)(C)[C@]12OC(C)=O` [PMA, reference compound] as the compound, how does the “p21^Waf1/Cip1 protein levels after PMA stimulation” value (p21^Waf1/Cip1 [1]; non-transfected VSM cells, PMA 100 ng/ml, between 2 and 6 hours) read?
**A.** induced

**Q.** And the “growth of A431 cells with PMA” value (A431 cells)?
**A.** significant growth inhibition

**Q.** Which “growth inhibitory effect of Adriamycin (DNA synthesis)” value (A10 VSM cells; control oligonucleotide transfected VSM cells, 500 to 2000 ng/ml for 2 hours) does the source give for `COc1cccc2c1C(=O)c1c(O)c3c(c(O)c1C2=O)C[C@@](O)(C(=O)CO)C[C@@H]3O[C@H]1C[C@H](N)[C@H](O)[C@H](C)O1` [Adriamycin, Adriamycin (doxorubicin), reference compound] here?
**A.** plateaued

**Q.** What about the caspase-3 activation (caspase-3) of the same compound?
**A.** little effect

**Q.** What about the “p21 levels after Adriamycin exposure” value (p21^Waf1/Cip1 [1]; VSM cells, Adriamycin 500 ng/ml) of the same compound?
**A.** increased

**Q.** For “5′-ATGTCCGATCCTGGTGATGTC-3′ (sense ATGTCCGATCCTGGTGATGTC; DNA, backbone not given here) [Sense p21Waf1/Cip1 control oligodeoxynucleotide, reference compound]”, which “PMA-induced p21^Waf1/Cip1 levels” value (p21^Waf1/Cip1 [2]) is on record?
**A.** no effect

**Q.** And the “PDGF-stimulated DNA synthesis, dose/response” value (A10 VSM cells; A10 VSM cells, increasing oligodeoxynucleotide concentration up to 200 nM)?
**A.** no effect

**Q.** And the “PMA-induced p21^Waf1/Cip1 levels” value (p21^Waf1/Cip1 [1]; A10 VSM cells, PMA stimulation up to 6 hours after transfection)?
**A.** no effect

**Q.** “TGF-β: growth factor TGF-β1 obtained from Upstate Biotechnology” was tested. Which “DNA synthesis in serum-starved cells” value (A10 VSM cells; A10 VSM cells, TGF-β 0.1 to 10 ng/ml for 24 hours) did it give?
**A.** significantly reduced

**Q.** And the “inhibitory effect of TGF-β on DNA synthesis in transfected cells” value (A10 VSM cells; antisense or control transfected A10 VSM cells, 10% serum, TGF-β 10 ng/ml)?
**A.** still present

**Q.** What about the laminin secretion (laminin) of the same compound?
**A.** decrease laminin secretion at higher doses

**Q.** And the fibronectin production (fibronectin)?
**A.** induced fibronectin production
